# Data from article PMC8877008, “Synthesis and Structure–Activity Relationship Studies of Benzimidazole-4,7-dione-Based P2X3 Receptor Antagonists as Novel Anti-Nociceptive Agents” (Molecules, 2022).
# Key:
# [1] = Metabolic stability in microsomal fraction, human; format: in vitro ADME; conditions: human microsomal fraction, read-out: Metabolic Stability (Microsomal Fr.) % remaining after 30 min
# CYP 1A2 = biological target: T1, CYP 1A2 (Homo sapiens, UniProt P05177); test: CYP450 inhibition 1A2; format: in vitro ADME; conditions: compound 10 μM
# T1 sequence (P05177 1-516): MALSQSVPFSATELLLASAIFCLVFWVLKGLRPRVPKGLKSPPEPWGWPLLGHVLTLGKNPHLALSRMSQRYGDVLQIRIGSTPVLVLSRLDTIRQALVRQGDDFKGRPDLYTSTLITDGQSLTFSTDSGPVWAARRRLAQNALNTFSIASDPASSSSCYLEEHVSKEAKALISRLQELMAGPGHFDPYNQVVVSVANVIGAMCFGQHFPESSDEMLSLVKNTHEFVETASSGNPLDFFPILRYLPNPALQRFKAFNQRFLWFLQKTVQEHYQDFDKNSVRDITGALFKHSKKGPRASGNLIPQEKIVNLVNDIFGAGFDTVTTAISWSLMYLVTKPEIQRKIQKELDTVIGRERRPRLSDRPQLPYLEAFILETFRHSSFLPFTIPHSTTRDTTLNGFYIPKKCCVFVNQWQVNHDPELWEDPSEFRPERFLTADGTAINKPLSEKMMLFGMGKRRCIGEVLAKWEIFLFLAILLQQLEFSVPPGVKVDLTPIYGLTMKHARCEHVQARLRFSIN
# CYP 2D6 = CYP 2D6 (Homo sapiens, UniProt P10635); test: CYP450 inhibition 2D6; format: in vitro ADME; conditions: compound 10 μM
# CYP 2D6, sequence (P10635 whole entry): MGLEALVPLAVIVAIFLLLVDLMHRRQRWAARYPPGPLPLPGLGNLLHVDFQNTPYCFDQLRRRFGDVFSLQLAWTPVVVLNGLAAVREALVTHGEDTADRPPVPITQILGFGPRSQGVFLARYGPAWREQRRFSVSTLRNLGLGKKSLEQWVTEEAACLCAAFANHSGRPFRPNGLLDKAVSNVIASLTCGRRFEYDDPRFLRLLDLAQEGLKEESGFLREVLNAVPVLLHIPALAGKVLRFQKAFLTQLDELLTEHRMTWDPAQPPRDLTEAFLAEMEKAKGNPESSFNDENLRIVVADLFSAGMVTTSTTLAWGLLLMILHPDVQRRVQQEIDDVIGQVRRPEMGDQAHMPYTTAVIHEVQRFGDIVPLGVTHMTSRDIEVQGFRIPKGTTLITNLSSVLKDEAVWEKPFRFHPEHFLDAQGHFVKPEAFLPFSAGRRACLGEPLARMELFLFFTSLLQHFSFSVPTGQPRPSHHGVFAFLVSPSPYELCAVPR
# CIPN rats = test: Antiallodynic effect, cisplatin chemotherapy-induced peripheral neuropathy (CIPN) model, von Frey; format: in vivo, male Sprague-Dawley rats; conditions: intravenous 12 mg/kg, von Frey filaments, five rats
# Text: The experimental protocol (CNUHIACUC-20039) was approved by the Institutional Animal Care and Use Committee of Chonnam National University Hospital. Animal models of neuropathic pain (NP) were constructed by spinal nerve ligation (SNL) or chemotherapeutics injection (chemotherapy-induced peripheral neuropathy, CIPN) in male Sprague-Dawley rats (weight, 150–180 g). Briefly, under sevoflurane anesthesia, the left L5 and L6 spinal nerves near the vertebral column were separated and tightly ligated using 6-0 silk. Cisplatin was administered intraperitoneally at 2 mg/kg once daily for 4 days. The paw withdrawal threshold (PWT) to mechanical stimuli was measured using calibrated 0.41–15.2 g von Frey filaments (Stoelting, Wood Dale, IL, USA), as described previously. […] The antiallodynic effects of the intravenous vehicle and LDD4692 (3mg/rat) were evaluated and expressed as the percentage of the maximal possible effect (% MPE). % MPE = [(post drug PWT − post injured baseline PWT)/(cutoff PWT − post injured baseline PWT)] × 100
# For the analysis of antagonistic activities, all data were calculated by Origin Pro 9.1 software provided by Originlab and the fitting of graphs was proceeded by the growth/sigmoidal and hill1 process within no weights for data selections. For the analysis of the behavioral assessments of pain models, all data are expressed as mean ± SEM. […]
# [2] = Metabolic stability in microsomal fraction, rat; format: in vitro ADME; conditions: rat microsomal fraction, read-out: Metabolic Stability (Microsomal Fr.) % remaining after 30 min
# CYP 2C19 = CYP 2C19 (Homo sapiens, UniProt P33261); test: CYP450 inhibition 2C19; format: in vitro ADME; conditions: compound 10 μM
# CYP 2C19, sequence (P33261 whole entry): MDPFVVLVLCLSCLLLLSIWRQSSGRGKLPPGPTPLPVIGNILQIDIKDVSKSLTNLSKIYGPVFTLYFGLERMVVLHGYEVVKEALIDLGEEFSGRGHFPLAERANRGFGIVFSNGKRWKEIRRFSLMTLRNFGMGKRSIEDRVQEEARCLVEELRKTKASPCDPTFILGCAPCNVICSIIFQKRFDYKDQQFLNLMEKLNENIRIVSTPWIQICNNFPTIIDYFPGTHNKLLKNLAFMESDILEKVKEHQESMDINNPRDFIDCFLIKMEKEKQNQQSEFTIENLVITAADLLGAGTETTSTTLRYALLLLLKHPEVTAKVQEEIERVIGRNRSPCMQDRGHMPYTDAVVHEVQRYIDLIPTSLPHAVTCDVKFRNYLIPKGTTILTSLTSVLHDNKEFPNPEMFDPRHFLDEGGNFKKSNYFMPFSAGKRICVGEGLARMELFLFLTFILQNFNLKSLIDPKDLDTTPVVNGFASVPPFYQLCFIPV
smiles,measurement,setting,value
"O=C1C(NC2CCN(C(=O)c3ccc(F)c(F)c3)CC2)=C(Cl)C(=O)c2[nH]c(C(F)(F)F)nc21 [14h, 6-Chloro-5-((1-(3,4-difluorobenzoyl)piperidin-4-yl)amino)-2-(trifluoromethyl)-1H-benzo[d]imidazole-4,7-dione]",remaining at 0.5 h,[1],> 99%
same,CYP450 inhibition 1A2,CYP 1A2,6.78%
same,CYP450 inhibition 2D6,CYP 2D6,7.74%
same,"Maximal possible effect (% MPE), antiallodynic",CIPN rats,78%
same,remaining at 0.5 h,[2],> 99%
same,CYP450 inhibition 2C19,CYP 2C19,25.6%
